Measured values published in patent US6727205B2, “Plant growth regulators and methods for control and/or suppression of annual bluegrass” (BASF Aktiengesellschaft, priority 2001, dated 2004).

What was measured:
[1] = system: annual bluegrass (Poa Annua); experiment: Percent control of annual bluegrass (browning, necrosis, melt-down, plant death); type: in vivo
Protocol: (§1) In this evaluation, annual bluegrass (Poa Annua) was grown, and the compounds were applied at various growth stages of the annual bluegrass as depicted in Table Ia using a randomized complete block design of four replications with ten treatments including one untreated control. The compounds were applied using water as the carrier. The results shown in Table Ib depict control of annual bluegrass, which includes browning, necrosis, melt-down and plant death. The results shown in Table Ic depict the amount of seeds on the plants and on the ground for the various treatments.

[2] = system: annual bluegrass (Poa Annua); experiment: Seed/biomass effect on annual bluegrass at Day 212; type: in vivo; conditions: for Biomass Dry Weight: control (none) 251
Protocol: as §1

## CP(=O)(O)CCC(N)C(=O)O (centres unmarked) [Glufosinate-Ammonium, 2-amino-4-(hydoxymethylphosphinyl)butanoic acid]
[1]; 17 DAT, application time A (seedling, day 1), rate 0.375 lb/A (420)
  % Control at Days After First Treatment (DAT): 80%
[1]; 43 DAT, application time A (seedling, day 1), rate 0.375 lb/A (420)
  % Control at Days After First Treatment (DAT): 80%
[1]; 43 DAT, application time C (tillering, day 35), rate 0.375 lb/A (420)
  % Control at Days After First Treatment (DAT): 10%
[1]; 77 DAT, application time A (seedling, day 1), rate 0.375 lb/A (420)
  % Control at Days After First Treatment (DAT): 74%
[1]; 77 DAT, application time C (tillering, day 35), rate 0.375 lb/A (420)
  % Control at Days After First Treatment (DAT): 96%
[1]; 151 DAT, application time A (seedling, day 1), rate 0.375 lb/A (420)
  % Control at Days After First Treatment (DAT): 33%
[1]; 151 DAT, application time C (tillering, day 35), rate 0.375 lb/A (420)
  % Control at Days After First Treatment (DAT): 74%
[1]; 151 DAT, application time E (flowering, day 136), rate 0.375 lb/A (420)
  % Control at Days After First Treatment (DAT): 93%
[1]; 172 DAT, application time A (seedling, day 1), rate 0.375 lb/A (420)
  % Control at Days After First Treatment (DAT): 3%
[1]; 172 DAT, application time C (tillering, day 35), rate 0.375 lb/A (420)
  % Control at Days After First Treatment (DAT): 45%
[1]; 172 DAT, application time E (flowering, day 136), rate 0.375 lb/A (420)
  % Control at Days After First Treatment (DAT): 65%
[1]; 204 DAT, application time A (seedling, day 1), rate 0.375 lb/A (420)
  % Control at Days After First Treatment (DAT): 0%
[1]; 204 DAT, application time C (tillering, day 35), rate 0.375 lb/A (420)
  % Control at Days After First Treatment (DAT): 18%
[1]; 204 DAT, application time E (flowering, day 136), rate 0.375 lb/A (420)
  % Control at Days After First Treatment (DAT): 8%
[2]; application time E, control (none) 30
  Seeds on Ground: 34 g/5 sq ft
[2]; application time E, control (none) 37
  Seeds on Plant: 32 g/5 sq ft
[2]; application time E
  Biomass Dry Weight: 184 g/5 sq ft
[2]; application time E, control (none) 669
  Seeds on Ground: 816 seeds/0.3 g
[2]; application time E, control (none) 864
  Seeds on Plant: 1000 seeds/0.3 g

## CCC(=O)C1=C([O-])CC(C(=O)[O-])CC1=O.[Ca+2] (centres unmarked) [Prohexadione-Calcium, calsium 3,5-dioxo-4-(1-oxopropyl)cyclohexanecarboxylate]
[1]; 17 DAT, application time A (seedling, day 1), rate 0.125 lb/A (140)
  % Control at Days After First Treatment (DAT): 0%
[1]; 17 DAT, application times A + B (seedling, days 1 and 15), rate A = 0.125 (140) + B = 0.125 (140) lb/A
  % Control at Days After First Treatment (DAT): 0%
[1]; 43 DAT, application time A (seedling, day 1), rate 0.125 lb/A (140)
  % Control at Days After First Treatment (DAT): 0%
[1]; 43 DAT, application time C (tillering, day 35), rate 0.125 lb/A (140)
  % Control at Days After First Treatment (DAT): 0%
[1]; 43 DAT, application times A + B (seedling, days 1 and 15), rate A = 0.125 (140) + B = 0.125 (140) lb/A
  % Control at Days After First Treatment (DAT): 0%
[1]; 77 DAT, application time A (seedling, day 1), rate 0.125 lb/A (140)
  % Control at Days After First Treatment (DAT): 0%
[1]; 77 DAT, application time C (tillering, day 35), rate 0.125 lb/A (140)
  % Control at Days After First Treatment (DAT): 0%
[1]; 77 DAT, application times A + B (seedling, days 1 and 15), rate A = 0.125 (140) + B = 0.125 (140) lb/A
  % Control at Days After First Treatment (DAT): 0%
[1]; 77 DAT, application times C + D (tillering, days 35 and 51), rate C = 0.125 (140) + D = 0.125 (140) lb/A
  % Control at Days After First Treatment (DAT): 0%
[1]; 151 DAT, application time A (seedling, day 1), rate 0.125 lb/A (140)
  % Control at Days After First Treatment (DAT): 0%
[1]; 151 DAT, application time C (tillering, day 35), rate 0.125 lb/A (140)
  % Control at Days After First Treatment (DAT): 0%
[1]; 151 DAT, application times A + B (seedling, days 1 and 15), rate A = 0.125 (140) + B = 0.125 (140) lb/A
  % Control at Days After First Treatment (DAT): 0%
[1]; 151 DAT, application times C + D (tillering, days 35 and 51), rate C = 0.125 (140) + D = 0.125 (140) lb/A
  % Control at Days After First Treatment (DAT): 0%
[1]; 172 DAT, application time A (seedling, day 1), rate 0.125 lb/A (140)
  % Control at Days After First Treatment (DAT): 0%
[1]; 172 DAT, application time C (tillering, day 35), rate 0.125 lb/A (140)
  % Control at Days After First Treatment (DAT): 0%
[1]; 172 DAT, application time F (flowering to soft dough, day 155), rate 0.250 lb/A (280)
  % Control at Days After First Treatment (DAT): 60%
[1]; 172 DAT, application times A + B (seedling, days 1 and 15), rate A = 0.125 (140) + B = 0.125 (140) lb/A
  % Control at Days After First Treatment (DAT): 0%
[1]; 172 DAT, application times C + D (tillering, days 35 and 51), rate C = 0.125 (140) + D = 0.125 (140) lb/A
  % Control at Days After First Treatment (DAT): 0%
[1]; 204 DAT, application time A (seedling, day 1), rate 0.125 lb/A (140)
  % Control at Days After First Treatment (DAT): 0%
[1]; 204 DAT, application time C (tillering, day 35), rate 0.125 lb/A (140)
  % Control at Days After First Treatment (DAT): 0%
[1]; 204 DAT, application time F (flowering to soft dough, day 155), rate 0.250 lb/A (280)
  % Control at Days After First Treatment (DAT): 95%
[1]; 204 DAT, application times A + B (seedling, days 1 and 15), rate A = 0.125 (140) + B = 0.125 (140) lb/A
  % Control at Days After First Treatment (DAT): 0%
[1]; 204 DAT, application times C + D (tillering, days 35 and 51), rate C = 0.125 (140) + D = 0.125 (140) lb/A
  % Control at Days After First Treatment (DAT): 0%
[2]; application time F, prohexadione-calcium treatment, control (none) 30
  Seeds on Ground: 50 g/5 sq ft
[2]; application time F, prohexadione-calcium treatment, control (none) 37
  Seeds on Plant: 34 g/5 sq ft
[2]; application time F, prohexadione-calcium treatment
  Biomass Dry Weight: 188 g/5 sq ft
[2]; application time F, prohexadione-calcium treatment, control (none) 669
  Seeds on Ground: 583 seeds/0.3 g
[2]; application time F, prohexadione-calcium treatment, control (none) 864
  Seeds on Plant: 822 seeds/0.3 g
